We go through 43 molecules from ChEMBL document CHEMBL1147425, “Structure-activity relationships of non-imidazole H(3) receptor ligands. Part 3: 5-Substituted 3-phenyl-1,2,4-oxadiazoles as potent antagonists” (Bioorg Med Chem Lett, 2004).

pKi: −log10 of the molar value. Bounds are passed on as bounds.

Test [1] deals with Histamine H3 receptor (Rattus norvegicus, UniProt Q9QYN8). In words: Binding affinity for rat histamine H3 receptor on rat cortical cells.
The target in test [2] is Histamine H3 receptor (Homo sapiens, UniProt Q9Y5N1). In words: Binding affinity for human histamine H3 receptor on human colon cells. The format is cell-based.
For a further test, the target named is Histamine H1 receptor (Homo sapiens, UniProt P35367). In words: Binding affinity towards histamine H1 receptor of human colon cells was determined. In kind it is cell-based.
A further test has as its target Histamine H2 receptor (Homo sapiens, UniProt P25021). Put plainly: Binding affinity towards histamine H2 receptor of human colon cells was determined. The format is cell-based.
The target in a further test is Histamine H4 receptor (Homo sapiens, UniProt Q9H3N8). Put plainly: Binding affinity towards histamine H4 receptor of human colon cells was determined. The format is cell-based.
A further test deals with Mus musculus. In words: Antagonistic effect was observed against agonist induced dipsogenia in mice after i.p. administration of compound; Active. In kind it is functional.

Histamine H3 receptor (Rattus norvegicus, UniProt Q9QYN8), sequence (Q9QYN8 whole entry): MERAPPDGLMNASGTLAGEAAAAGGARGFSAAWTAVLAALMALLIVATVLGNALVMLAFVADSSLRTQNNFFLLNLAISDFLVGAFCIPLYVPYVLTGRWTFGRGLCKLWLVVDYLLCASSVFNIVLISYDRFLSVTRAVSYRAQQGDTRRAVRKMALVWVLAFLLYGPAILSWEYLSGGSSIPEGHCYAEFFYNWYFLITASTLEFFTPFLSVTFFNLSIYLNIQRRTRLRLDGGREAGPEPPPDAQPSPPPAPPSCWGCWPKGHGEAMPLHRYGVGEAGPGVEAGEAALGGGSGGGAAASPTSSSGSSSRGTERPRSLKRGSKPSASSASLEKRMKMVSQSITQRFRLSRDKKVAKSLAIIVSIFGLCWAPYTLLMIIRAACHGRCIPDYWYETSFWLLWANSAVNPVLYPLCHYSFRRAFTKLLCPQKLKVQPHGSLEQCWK
Histamine H3 receptor (Homo sapiens, UniProt Q9Y5N1), sequence (Q9Y5N1 whole entry): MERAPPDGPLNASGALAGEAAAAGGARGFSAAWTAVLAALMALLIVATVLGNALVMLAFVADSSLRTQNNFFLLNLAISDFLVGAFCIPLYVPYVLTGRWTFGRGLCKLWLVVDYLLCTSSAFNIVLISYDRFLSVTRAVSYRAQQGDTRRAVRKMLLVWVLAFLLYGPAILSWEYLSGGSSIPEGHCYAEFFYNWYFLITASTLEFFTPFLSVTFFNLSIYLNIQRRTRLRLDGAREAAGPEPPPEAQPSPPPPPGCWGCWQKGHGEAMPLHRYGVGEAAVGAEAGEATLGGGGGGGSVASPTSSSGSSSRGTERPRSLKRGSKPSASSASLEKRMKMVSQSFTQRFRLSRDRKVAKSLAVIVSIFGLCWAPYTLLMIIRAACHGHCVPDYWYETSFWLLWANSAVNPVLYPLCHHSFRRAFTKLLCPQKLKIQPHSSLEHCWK
Histamine H1 receptor, sequence (P35367 whole entry): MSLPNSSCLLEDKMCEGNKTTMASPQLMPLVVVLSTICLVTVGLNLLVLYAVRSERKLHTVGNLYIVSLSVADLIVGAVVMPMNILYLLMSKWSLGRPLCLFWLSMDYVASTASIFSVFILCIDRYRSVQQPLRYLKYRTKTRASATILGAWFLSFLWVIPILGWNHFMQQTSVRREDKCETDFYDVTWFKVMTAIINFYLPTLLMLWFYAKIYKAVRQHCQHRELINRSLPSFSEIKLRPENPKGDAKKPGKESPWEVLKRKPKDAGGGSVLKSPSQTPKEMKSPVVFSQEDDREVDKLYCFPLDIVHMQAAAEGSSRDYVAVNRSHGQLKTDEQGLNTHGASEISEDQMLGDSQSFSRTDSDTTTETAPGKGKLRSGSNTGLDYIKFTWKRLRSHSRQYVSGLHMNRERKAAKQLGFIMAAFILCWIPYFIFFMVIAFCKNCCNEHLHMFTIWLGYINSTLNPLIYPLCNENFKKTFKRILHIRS
Histamine H2 receptor, sequence (P25021 whole entry): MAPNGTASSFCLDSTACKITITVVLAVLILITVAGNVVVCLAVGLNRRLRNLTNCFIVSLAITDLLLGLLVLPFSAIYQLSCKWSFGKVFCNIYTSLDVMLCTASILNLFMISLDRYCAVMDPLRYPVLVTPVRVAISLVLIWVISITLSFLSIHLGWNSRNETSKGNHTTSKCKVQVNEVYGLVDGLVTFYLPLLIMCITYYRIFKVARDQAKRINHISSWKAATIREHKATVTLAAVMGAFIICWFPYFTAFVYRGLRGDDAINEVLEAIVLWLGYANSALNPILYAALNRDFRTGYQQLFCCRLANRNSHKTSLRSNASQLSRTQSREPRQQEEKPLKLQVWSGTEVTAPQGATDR
Histamine H4 receptor, sequence (Q9H3N8 whole entry): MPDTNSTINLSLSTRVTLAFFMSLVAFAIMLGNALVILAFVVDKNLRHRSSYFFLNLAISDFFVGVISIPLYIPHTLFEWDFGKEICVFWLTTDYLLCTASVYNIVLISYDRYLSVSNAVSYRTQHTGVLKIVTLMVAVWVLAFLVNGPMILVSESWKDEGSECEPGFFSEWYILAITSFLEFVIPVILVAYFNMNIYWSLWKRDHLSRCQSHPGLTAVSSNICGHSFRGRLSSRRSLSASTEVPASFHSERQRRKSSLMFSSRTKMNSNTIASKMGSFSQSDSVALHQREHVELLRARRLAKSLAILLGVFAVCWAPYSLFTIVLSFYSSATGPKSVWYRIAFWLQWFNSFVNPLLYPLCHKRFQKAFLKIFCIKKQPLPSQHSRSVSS

`CC(C)Cc1nc(-c2ccc(OCCCN3CCCN(C(=O)[C@@H](C)NC(=O)c4ccco4)CC3)cc2F)no1`: the pKi at Histamine H3 receptor [1] was 8.77; at Histamine H3 receptor [2] it was 7.48.

On to `C[C@H](NC(=O)OC(C)(C)C)c1nc(-c2ccc(OCCCN3CCCN(C(=O)[C@@H](C)NC(=O)c4ccco4)CC3)cc2F)no1`, for which the values for the pKi at Histamine H3 receptor [1] and on Histamine H3 receptor [2] were 8.09 and 6.85, respectively.

As for `C[C@@H](NC(=O)c1ccco1)C(=O)N1CCCN(CCCOc2ccc(-c3noc(C4CCCCCC4)n3)c(F)c2)CC1`, the pKi at Histamine H3 receptor [1] was 8.48; on Histamine H3 receptor [2], 7.82.

Regarding `C[C@@H](NC(=O)CC(C)(C)C)C(=O)N1CCN(CCCOc2ccc(-c3noc(CC4CCCC4)n3)c(F)c2)CC1`, the pKi was 8.19 on Histamine H3 receptor [1] and 7.00 at Histamine H3 receptor [2].

In the case of `C[C@@H](NC(=O)c1cccc(Cl)c1)C(=O)N1CCN(CCCOc2ccc(-c3noc(CC4CCCC4)n3)c(F)c2)CC1`, the pKi at Histamine H3 receptor [1] is 8.17; on Histamine H3 receptor [2] it was 7.44.

For the molecule `C[C@@H](NC(=O)c1ccc(Br)cc1)C(=O)N1CCN(CCCOc2ccc(-c3noc(CC4CCCC4)n3)c(F)c2)CC1`, the pKi on Histamine H3 receptor [1] was 8.21; at Histamine H3 receptor [2], 7.74.

Regarding `C[C@@H](NC(=O)c1ccc(N(C)C)cc1)C(=O)N1CCN(CCCOc2ccc(-c3noc(CC4CCCC4)n3)c(F)c2)CC1`, the pKi was 6.05 at Histamine H1 receptor; 8.62 at Histamine H3 receptor [1]; below 5.00 at Histamine H2 receptor; below 5.00 on Histamine H4 receptor; 7.82 on Histamine H3 receptor [2]. This molecule registered an Activity with Mus musculus above 0.01 µM/kg.

`COc1cccc(C(=O)N[C@H](C)C(=O)N2CCN(CCCOc3ccc(-c4noc(CC5CCCC5)n4)c(F)c3)CC2)c1`: the pKi at Histamine H3 receptor [1] was 8.44; on Histamine H3 receptor [2] it was 7.47.

As to `C[C@@H](NC(=O)c1ccco1)C(=O)N1CCCN(CCCOc2ccc(-c3noc(-c4ccccc4)n3)c(F)c2)CC1`, the pKi on Histamine H3 receptor [1] was 8.39; at Histamine H3 receptor [2], 8.07.

Consider `C[C@@H](NC(=O)c1ccccc1F)C(=O)N1CCN(CCCOc2ccc(-c3noc(CC4CCCC4)n3)c(F)c2)CC1`, for which the pKi is 8.54 at Histamine H3 receptor [1] and 7.80 on Histamine H3 receptor [2].

Turning to `C[C@@H](NC(=O)c1cccc(F)c1)C(=O)N1CCN(CCCOc2ccc(-c3noc(CC4CCCC4)n3)c(F)c2)CC1`, the pKi on Histamine H3 receptor [1] is 8.42; on Histamine H3 receptor [2], 7.74.

Turning to `CC(C)CCc1nc(-c2ccc(OCCCN3CCCN(C(=O)[C@@H](C)NC(=O)c4ccco4)CC3)cc2F)no1`, the pKi on Histamine H3 receptor [1] is 9.25; on Histamine H3 receptor [2] it was 8.07.

Take `C[C@@H](NC(=O)CCN1CCOCC1)C(=O)N1CCCN(CCCOc2ccc(-c3noc(CC4CCCC4)n3)c(F)c2)CC1`: the pKi was 9.24 on Histamine H3 receptor [1] and 7.89 at Histamine H3 receptor [2].

With `C[C@@H](NC(=O)c1ccco1)C(=O)N1CCCN(CCCOc2ccc(-c3noc(Cc4ccccc4)n3)c(F)c2)CC1`, the figures for the pKi at Histamine H3 receptor [1] and on Histamine H3 receptor [2] were 8.80 and 7.40, respectively.

With `CC(C)OCc1nc(-c2ccc(OCCCN3CCCN(C(=O)[C@@H](C)NC(=O)c4ccco4)CC3)cc2F)no1`, the negative logarithm of the Ki (pKi) on Histamine H3 receptor [1] was 8.43; at Histamine H3 receptor [2] it was 6.96.

Regarding `C[C@@H](NC(=O)c1ccc(C#N)cc1)C(=O)N1CCN(CCCOc2ccc(-c3noc(CC4CCCC4)n3)c(F)c2)CC1`, the pKi on Histamine H3 receptor [1] is 8.92; on Histamine H3 receptor [2], 8.02.

Turning to `C[C@@H](NC(=O)c1ccco1)C(=O)N1CCCN(CCCOc2ccc(-c3noc(-c4cncs4)n3)c(F)c2)CC1`, the pKi at Histamine H3 receptor [1] was 8.21; on Histamine H3 receptor [2], 6.62.

In the case of `C[C@@H](NC(=O)C(C)(C)C)C(=O)N1CCN(CCCOc2ccc(-c3noc(CC4CCCC4)n3)c(F)c2)CC1`, the results for the pKi on Histamine H3 receptor [1] and on Histamine H3 receptor [2] were 8.15 and 6.89, respectively.

With `C[C@@H](NC(=O)CC1CCCC1)C(=O)N1CCN(CCCOc2ccc(-c3noc(-c4ccccc4)n3)c(F)c2)CC1`, the values for the pKi at Histamine H3 receptor [1] and on Histamine H3 receptor [2] were 7.68 and 6.89, respectively.

For the molecule `C[C@@H](NC(=O)c1ccco1)C(=O)N1CCN(CCCOc2ccc(C(=O)C3CC3)c(F)c2)CC1`, the pKi on Histamine H3 receptor [1] is 8.89; at Histamine H3 receptor [2], 7.37.

Regarding `C[C@@H](NC(=O)c1ccco1)C(=O)N1CCCN(CCCOc2ccc(-c3noc(-c4ccncc4)n3)c(F)c2)CC1`, the values for the pKi on Histamine H3 receptor [1] and at Histamine H3 receptor [2] were 7.96 and 6.28, respectively.

Consider `C[C@@H](N)C(=O)N1CCCN(CCCOc2ccc(-c3noc(C4CC4)n3)c(F)c2)CC1`, for which the values for the negative-log Ki (pKi) at Histamine H3 receptor [1] and at Histamine H3 receptor [2] were 8.52 and 6.62, respectively.

Regarding `CC(C)CC(=O)N[C@H](C)C(=O)N1CCCN(CCCOc2ccc(-c3noc(CC4CCCC4)n3)c(F)c2)CC1`, the pKi on Histamine H3 receptor [1] was 8.96; on Histamine H3 receptor [2], 7.89.

Regarding `C[C@@H](N)C(=O)N1CCN(CCCOc2ccc(-c3noc(C4CC4)n3)c(F)c2)CC1`, the pKi is 8.51 on Histamine H3 receptor [1] and 6.25 on Histamine H3 receptor [2].

For the molecule `CC(C)CCC(=O)N[C@H](C)C(=O)N1CCCN(CCCOc2ccc(-c3noc(CC4CCCC4)n3)c(F)c2)CC1`, the pKi was 8.55 at Histamine H3 receptor [1] and 7.64 on Histamine H3 receptor [2].

As for `CC(C)CCC(=O)N[C@H](C)C(=O)N1CCN(CCCOc2ccc(-c3noc(-c4ccccc4)n3)c(F)c2)CC1`, the pKi is 7.85 on Histamine H3 receptor [1] and 7.17 on Histamine H3 receptor [2].

Consider `CCC(=O)N[C@H](C)C(=O)N1CCCN(CCCOc2ccc(-c3noc(CC4CCCC4)n3)c(F)c2)CC1`, for which the pKi at Histamine H3 receptor [1] is 8.96; on Histamine H3 receptor [2], 7.59.

As to `C[C@@H](NC(=O)c1ccco1)C(=O)N1CCCN(CCCOc2ccc(-c3noc(CC(C)(C)C)n3)c(F)c2)CC1`, the negative logarithm of the Ki (pKi) at Histamine H3 receptor [1] is 8.62; on Histamine H3 receptor [2], 7.40.

Regarding `C[C@@H](NC(=O)c1cccc(N(C)C)c1)C(=O)N1CCN(CCCOc2ccc(-c3noc(CC4CCCC4)n3)c(F)c2)CC1`, the negative-log Ki (pKi) is 8.59 at Histamine H3 receptor [1] and 7.33 on Histamine H3 receptor [2].

Consider `C[C@@H](NC(=O)c1ccc(Cl)cc1)C(=O)N1CCN(CCCOc2ccc(-c3noc(CC4CCCC4)n3)c(F)c2)CC1`, for which the values for the pKi on Histamine H3 receptor [1] and on Histamine H3 receptor [2] were 8.55 and 7.62, respectively.

As for `C[C@@H](NC(=O)c1ccco1)C(=O)N1CCCN(CCCOc2ccc(-c3noc(-c4ccoc4)n3)c(F)c2)CC1`, the pKi on Histamine H3 receptor [1] was 8.77; at Histamine H3 receptor [2] it was 7.07.

Regarding `CC(C)C(=O)N[C@H](C)C(=O)N1CCN(CCCOc2ccc(-c3noc(CC4CCCC4)n3)c(F)c2)CC1`, the pKi at Histamine H3 receptor [1] is 8.10; on Histamine H3 receptor [2], 6.64.

On to `C[C@@H](NC(=O)c1ccco1)C(=O)N1CCCN(CCCOc2ccc(-c3noc(CC4CCCC4)n3)c(F)c2)CC1`, for which the pKi at Histamine H3 receptor [1] is 9.08; on Histamine H3 receptor [2], 8.03.

As for `C[C@@H](NC(=O)c1cccnc1)C(=O)N1CCN(CCCOc2ccc(-c3noc(CC4CCCC4)n3)c(F)c2)CC1`, the negative-log Ki (pKi) at Histamine H3 receptor [1] was 8.77; on Histamine H3 receptor [2], 7.70.

With `C[C@@H](NC(=O)c1cccc(OC(F)(F)F)c1)C(=O)N1CCN(CCCOc2ccc(-c3noc(CC4CCCC4)n3)c(F)c2)CC1`, the pKi at Histamine H3 receptor [1] was 7.62; on Histamine H3 receptor [2], 7.19.

Consider `CC(C)CCC(=O)N[C@H](C)C(=O)N1CCN(CCCOc2ccc(-c3noc(CC4CCCC4)n3)c(F)c2)CC1`, for which the pKi on Histamine H3 receptor [1] was 8.21; on Histamine H3 receptor [2] it was 7.01.

For `C[C@@H](NC(=O)CN1CCOCC1)C(=O)N1CCN(CCCOc2ccc(-c3noc(-c4ccccc4)n3)c(F)c2)CC1`, the pKi at Histamine H3 receptor [1] is 8.09; at Histamine H3 receptor [2], 7.04.

Regarding `Cc1ccccc1C(=O)N[C@H](C)C(=O)N1CCN(CCCOc2ccc(-c3noc(CC4CCCC4)n3)c(F)c2)CC1`, the negative-log Ki (pKi) at Histamine H3 receptor [1] is 8.62; on Histamine H3 receptor [2], 7.89.

As to `CCOCC(=O)N[C@H](C)C(=O)N1CCN(CCCOc2ccc(-c3noc(-c4ccccc4)n3)c(F)c2)CC1`, the pKi at Histamine H3 receptor [1] is 8.00; at Histamine H3 receptor [2], 7.00.

For the molecule `CC(C)CC(=O)N[C@H](C)C(=O)N1CCN(CCCOc2ccc(-c3noc(CC4CCCC4)n3)c(F)c2)CC1`, the pKi was 8.30 at Histamine H3 receptor [1] and 6.96 on Histamine H3 receptor [2].

`C[C@@H](NC(=O)c1ccco1)C(=O)N1CCCN(CCCOc2ccc(-c3noc(C(C)(C)C)n3)c(F)c2)CC1`: the results for the pKi at Histamine H3 receptor [1] and on Histamine H3 receptor [2] were 8.39 and 7.07, respectively.

For `C[C@@H](NC(=O)c1ccco1)C(=O)N1CCCN(CCCOc2ccc(-c3noc(C4CCCO4)n3)c(F)c2)CC1` (mixture of isomers), the values for the pKi on Histamine H3 receptor [1] and at Histamine H3 receptor [2] were 8.11 and 6.68, respectively.

In the case of `C[C@@H](NC(=O)c1ccco1)C(=O)N1CCN(CCCOc2ccc(-c3noc(-c4ccccc4)n3)c(F)c2)CC1` (stereo in doubt; 13q), the pKi on Histamine H3 receptor [1] is 7.89; on Histamine H3 receptor [2] it was 7.08.
